# Reference: patent US6676932B2, “Ultraviolet absorbent, photostabilizer, ultraviolet ray-absorbing composition, photostabilized composition and external preparation for skin” (Shiseido Co., Ltd., priority 2001, dated 2004)
# Assays:
# [1] = tested on: sunburn; assay: Ultraviolet preventive effect, application test on beach in summer (Test Example 2); type: in vivo, human
# Method: An application test was carried out on beach in summer. Equal volumes of samples were individually coated on back halves of subjects. After exposure to direct daylight, the degree of sunburn was assessed according to the following assessment standards. Each group consists of 10 subjects.
# Prominently effective: none or almost no sunburn symptom was observed.
# Effective: light sunburn symptom was observed.
# Ineffective: strong sunburn symptom was observed.
# ⊚: prominently effective or effective for 80% or more of the subjects.
# ◯: prominently effective or effective for 50% or more to less than 80% of the subjects.
# Δ: prominently effective or effective for 30% or more to less than 50% of the subjects.
# x: prominently effective or effective for less than 30% of the subjects.
# The aqueous phase and the alcohol phase were separately prepared and then mixed together.
# Propylene glycol was added to and dissolved in ion exchange water. The resulting solution was retained at 70° C. under heating (aqueous phase). Other ingredients were mixed […]. The resulting mixture was melted under heating and retained at 70° C. (oil phase). The oil phase was added to the aqueous phase, for preliminary emulsification with a homomixer to homogeneity. Under thorough mixing, subsequently, the mixture was cooled to 30° C.
# [2] = tested on: skin; assay: Test of skin irritation: 24-hour occlusion patch test (Test Example 3 ii); type: in vivo, human; conditions: 10 wt % ultraviolet absorbent
# Method: The same samples as in the Test Example 2 were used (at a 10 wt % amount of an ultraviolet absorbent).
# 20 Healthy male and female volunteers per one group were carried out in a 24-hour occlusion patch test, using a fin chamber on forearm curves. Assessment was done on the basis of the following assessment standards.
# Mean score was determined for the assessment on the basis of the following standards.
# ◯: mean score of more than 0 to less than 1.
# Δ: mean score of 1 or more to less than 2.
# x: mean score of 2 or more.
# [3] = Drug stabilization effect under daylight exposure (Test Examples 182 to 211); type: physicochemical; design: key to Appearance (visual determination): ◯: no change; Δ: almost no change; x: change; conditions: photostabilizer 0.05 wt %, daylight exposure (80 MJ); for Remaining ratio (%): liquid chromatography
# Method: For observation of the change of the appearance of each test sample (determination based on visual observation) and the measurement of the remaining ratio by liquid chromatography before and after daylight exposure (80 MJ), the test sample was prepared.
# [4] = cream, blend amount 0.0005 wt %
# [5] = lotion, blend amount 0.0005 wt %
# [6] = lotion, blend amount 0.001 wt %
# [7] = drug L-ascorbic acid 2-glucoside 2.0 wt %
# [8] = drug dibutylhydroxytoluene 0.01 wt %
# [9] = drug dl-α-tocopherol 2-L-ascorbic acid phosphate diester potassium salt 0.01 wt %
# [10] = drug Dipotassium glycyrrhizinate 0.05 wt %
Structure (SMILES),"Ultraviolet prevention effect [1, 4]","Ultraviolet prevention effect ([1]; cream, blend amount 0.001 wt %)","Ultraviolet prevention effect ([1]; cream, blend amount 0.01 wt %)","Ultraviolet prevention effect ([1]; cream, blend amount 1 wt %)","Ultraviolet prevention effect ([1]; cream, blend amount 5 wt %)","Ultraviolet prevention effect ([1]; cream, blend amount 10 wt %)","Ultraviolet prevention effect ([1]; cream, blend amount 20 wt %)","Ultraviolet prevention effect [1, 5]","Ultraviolet prevention effect [1, 6]","Ultraviolet prevention effect ([1]; lotion, blend amount 0.01 wt %)","Ultraviolet prevention effect ([1]; lotion, blend amount 1 wt %)","Ultraviolet prevention effect ([1]; lotion, blend amount 5 wt %)","Ultraviolet prevention effect ([1]; lotion, blend amount 10 wt %)","Ultraviolet prevention effect ([1]; lotion, blend amount 20 wt %)","Determination (skin reaction, patch test) ([2]; cream)","Determination (skin reaction, patch test) ([2]; lotion)","Appearance (visual determination) [3, 8]","Remaining ratio (%) [3, 8]","Appearance (visual determination) [3, 9]","Remaining ratio (%) [3, 9]",other results
"Oc1nncc(N2CCCCC2)c1N1CCCCC1 [4,5-Dipiperidino-3-hydroxypyridazine]",Δ (prominently effective or effective for 30% or more to less than 50% of the subjects),◯ (prominently effective or effective for 50% or more to less than 80% of the subjects),⊚ (prominently effective or effective for 80% or more of the subjects),⊚ (prominently effective or effective for 80% or more of the subjects),⊚ (prominently effective or effective for 80% or more of the subjects),⊚ (prominently effective or effective for 80% or more of the subjects),⊚ (prominently effective or effective for 80% or more of the subjects),Δ (prominently effective or effective for 30% or more to less than 50% of the subjects),◯ (prominently effective or effective for 50% or more to less than 80% of the subjects),⊚ (prominently effective or effective for 80% or more of the subjects),⊚ (prominently effective or effective for 80% or more of the subjects),⊚ (prominently effective or effective for 80% or more of the subjects),⊚ (prominently effective or effective for 80% or more of the subjects),⊚ (prominently effective or effective for 80% or more of the subjects),⊚ (mean score of 0),⊚ (mean score of 0),◯,99.0%,◯,99.1%,"Appearance (visual determination) [3, 7]: ◯; Remaining ratio (%) [3, 7]: 99.3%; Appearance (visual determination) ([3]; drug salicylic acid 0.1 wt %): ◯; Remaining ratio (%) ([3]; drug salicylic acid 0.1 wt %): 99.6%"
"Oc1cc(N2CCOCC2)cnn1 [3-Hydroxy-5-morpholinopyridazine, 3-hydroxy-5-morpholinopyridazine]",Δ (prominently effective or effective for 30% or more to less than 50% of the subjects),◯ (prominently effective or effective for 50% or more to less than 80% of the subjects),⊚ (prominently effective or effective for 80% or more of the subjects),⊚ (prominently effective or effective for 80% or more of the subjects),⊚ (prominently effective or effective for 80% or more of the subjects),⊚ (prominently effective or effective for 80% or more of the subjects),⊚ (prominently effective or effective for 80% or more of the subjects),Δ (prominently effective or effective for 30% or more to less than 50% of the subjects),◯ (prominently effective or effective for 50% or more to less than 80% of the subjects),⊚ (prominently effective or effective for 80% or more of the subjects),⊚ (prominently effective or effective for 80% or more of the subjects),⊚ (prominently effective or effective for 80% or more of the subjects),⊚ (prominently effective or effective for 80% or more of the subjects),⊚ (prominently effective or effective for 80% or more of the subjects),⊚ (mean score of 0),⊚ (mean score of 0),◯,98.8%,◯,98.0%,"Appearance (visual determination) [3, 10]: ◯; Remaining ratio (%) [3, 10]: 98.9%"
